Data as given in US20260199242A1, “PROCESSES FOR MAKING CYCLIC LIPID IMPLANTS FOR INTRAOCULAR USE” (Allergan, Inc., priority 2006, published 2026).

Columns and labels:
[1] = Potency of bimatoprost from melt-extruded implants as percent of label strength by HPLC (FIG. 1); format: physicochemical
Protocol: Typical extrusion temperatures for a PLGA implant are from about 85° C. to about 110° C. […] As shown by FIG. 1, five different formulation bimatoprost containing sustained release implants or drug delivery systems (“DDS”) were made. Proceeding from left to right to left along the x axis of FIG. 1 these five formulations were: The theoretical maximum potency of bimatoprost is by definition equal to the label strength (“LS”) of the bimatoprost. For example, the label strength of a one milligram implant which comprises 150 μg of bimatoprost is 150 μg. […] We determined the potency of the bimatoprost released from the implants made as a percent of their label strength using HPLC (high pressure liquid chromatography). Thus, the bimatoprost implants (each weighing about 1 mg) made were dissolved in 0.5 mL acetonitrile in a 10 mL volumetric flask and sonicated for 5 min. The flask was then filled to volume with diluent (72:18:10 water:acetonitrile:methanol); mixed well, and transferred to a HPLC vial for analysis. The HPLC analysis was performed using a Waters Alliance 2695 HPLC system, Waters Symmetry®C18 reverse-phase column 4.6 mm×75 mm, and a Waters 2487 UV detector. The conditions for analysis were flow rate of 1.5 mL/minute, UV wavelength of 210 nm, column temperature of 30° C. and mobile phase of 72:18:10 (water:acetonitrile:methanol, v/v/v) with 0.03% (w/v) trifluoroacetic acid. The injection volume of samples and standards assayed was 75 uL with a cycle time of 45 min.

[2] = lower temperature and faster rate in a low pH environment; cited from earlier work
[3] = cited from earlier work
[4] = test system: patients with age-related macular degeneration (ARMD); settings: infusion; cited from earlier work

Row | SMILES | potency of the bimatoprost released from the DDS (percent of label strength) ([1]; DDS made by melt extrusion carried out at 57° C.) | potency of the bimatoprost released from the DDS (percent of label strength) ([1]; DDS made by melt extrusion carried out at 85° C.) | bimatoprost therapeutically inactive (loss of potency) ([1]; extrusion temperature of about 80° C. or higher) [%] | temperature above which bimatoprost can degrade if heated [2] | solubility in water [3] | visual acuity [4]
1 | CCNC(=O)CCC/C=C\C[C@@H]1[C@@H](/C=C/[C@@H](O)CCc2ccccc2)[C@H](O)C[C@@H]1O [Bimatoprost] | more than 90% | about 40% | ≤ 50 | greater than 65 °C | slightly soluble | 
2 | CCCCC[C@H](O)/C=C/[C@H]1[C@H](O)CC(=O)[C@@H]1CCCCCCC(=O)O [prostaglandin E1] |  |  |  |  |  | improvement in visual acuity
